How the values were obtained:
Format in all cases: cell-based, human
MEK = test: Immunoblot of Erk1/2 phosphorylation in melanoma cell lines treated with AZD-6244; details: 1 hour treatment
Method: (§1) FIGS. 5A-5E: Melanoma lines expressing GRM3 mutants show increased sensitivity to inhibition of MEK by AZD-6244. (FIG. 5A) Immunoblot analysis of representative melanoma cell lines harboring either WT or mutant GRM3. The cells were treated with the indicated concentration of AZD-6244 and analyzed for Erk1/2 expression and phosphorylation. Cells were treated for 1 hour with AZD-6244 or vehicle alone as control. Lysates were subjected to protein blot analysis with α-Eek, anti-P-Erk1/2 (α-P-Erk1/2) and anti-GAPDH as a loading control. (FIG. 5B) Representative dose-response curves showing efficacy of AZD-6244 against GRM3 mutant lines compared to WT GRM3 lines. Relative cell number after cells were treated for 72 hours with increasing concentrations (0.01-30 μM) of AZD-6244, as estimated by CellTiterGlo and plotted as percent survival, as compared to vehicle-treated control, versus log AZD-6244 concentration in nM (where 1 is 10 nM AZD-6244). […] (FIG. 5D) fluorescence activated cells sorting (FACS) analysis of WT (2T) and A190V mutant (17T) cells showing cell cycle distribution (propidium iodide (PI) staining, x axis) versus cell counts (y axis). […] (FIG. 5D) Quantification of FACS-sorted AZD-6244-treated cells. The percentage of apoptotic cells was determined based on the sub-G1 population for vehicle-treated cells or 1 AZD-6244 treated cells. […]

[1] = system: 63T-Glu573Lys melanoma cells; test: Growth inhibition by AZD-6244 of mutant GRM3 cells (63T) transduced with empty vector or WT GRM3; details: 63T cells, 72 hours treatment, CellTiterGlo
Method: FIGS. 12A-12C: Expression of WT GRM3 in a mutant GRM3 background desensitizes cells to AZD-6244 inhibition. (FIG. 12A) Cell lysates from 63T cells transduced with empty vector or WT GRM3 were analyzed by western blotting using anti-FLAG-HRP and anti-GAPDH as a loading control. (FIG. 12B) Melanoma cells harboring WT (13T) or mutant GRM3 (63T-Glu573Lys) transduced with empty vector or WT GRM3 were tested for growth inhibition by AZD-6244. Cells were plated and treated with AZD-6244 concentrations ranging from 2 nM to 30 μM for 72 hours prior to analysis using CellTiterGlo and GraphPad Prism5. EC50 dose-response curves were generated from GraphPad using four-parameter nonlinear regression. (FIG. 12C) EC50 values for inhibition of cell growth by 72 h treatment with AZD-6244 of the indicated melanoma cell lines.
To test AZD-6244 inhibition of cells that had been stimulated with DCG-IV to activate MEK1/2, melanoma cells were plated in 96-well plates at 2,000 cells per well in either RPMI-1640/0.5% FBS/2.5 μM DCG-IV or RPMI-1640/10% FBS and incubated for 24 hours prior to addition of inhibitor at concentrations from 2 nM to 30 μM. Once the inhibitor was added, cells were incubated for 72 hours at 37° C. Plates were then analyzed as described above. […]

[2] = system: melanoma cells harboring WT or mutant GRM3; test: Flow cytometry (FACS) cell cycle analysis, sub-G1 population; details: AZD-6244 2 μM for 72 hours, PI staining
Method: as §1, with “lines.” for “lines. Relative cell number after cells were treated for 72 hours with increasing concentrations (0.01-30 μM) of AZD-6244, as estimated by CellTiterGlo and plotted as percent survival, as compared to vehicle-treated control, versus log AZD-6244 concentration in nM (where 1 is 10 nM AZD-6244).”
Melanoma cells were seeded into T25 flasks at a density of 3×10^5 cells per flask in normal complete T2 medium and incubated at 37° C. for 24 hours prior to addition of AZD-6244 (cat #S1008) (Selleck Chemicals LLC-Houston, Tex.). […] Cellular DNA content was analyzed on Becton Dickinson FACSCalibur™ using CellQuest software. […]

PARP cleavage = test: Immunoblot of PARP cleavage after AZD-6244 treatment; details: lysates from FACS analyzed cells
A375 pooled GRM3 clones = test: Migration assay (Boyden chamber), A375 pooled GRM3 clones with or without DCG-IV; details: 2.5 μM DCG-IV, serum-free medium in top chamber
Method: (§2) FIGS. 3A-3C: GRM3 mutations increase cell migration in vitro and in vivo. (FIG. 3A) A375 pooled GRM3 clones in the absence of stimulus (i) migrate as well as those stimulated with the group II metabotropic agonist DCG-IV (ii). A375 clones were seeded in Boyden chambers in either the absence of stimulus (i) or in the presence of 2.5 μM DCG-IV (ii) and assessed for their ability to migrate 16 hours later. (FIG. 3B) Mel-STR pooled GRM3 clones were analyzed for migration as described in (FIG. 3A). Stained wells were analyzed using a Zeiss microscope 10× lens and counted with NIH ImageJ software. (FIG. 3C) non-obese diabetic (NOD)/severe combined immunodeficiency (SCID) mice were intravenously injected with A375 pooled GRM3 clones expressing WT, G561E, S610L, E767K, or E870K GRM3, or vector alone, and examined after nine weeks. (i) Graph indicates the number of mice that had lung macrometastases. (ii) Representative images of lungs from mice injected with vector, WT or mutant expressing A375 clones.
(§3) Mel-STR pooled clones were seeded into pre-conditioned migration wells (8.0 μm—BD Biocoat, BD Biosciences) at 30,000 cells per well in serum-free medium or serum-free medium plus 2.5 μM DCG-IV in the top chamber. […] Inserts were analyzed and the number of cells migrated per field view was quantitated using ImageJ (NIH software). […]

[3] = system: Mel-STR pooled GRM3 clones; test: Migration assay (Boyden chamber), Mel-STR pooled GRM3 clones with or without DCG-IV; details: 2.5 μM DCG-IV, serum-free medium in top chamber
Method: as §2, §3

| Structure (SMILES) | relative degree of MEK inhibition, mutant versus WT GRM3 cells (MEK) | inhibition of MEK as measured by phosphorylated ERK (p-ERK) levels (MEK; mutant as well as WT GRM3 melanoma cells) | resistance of cells overexpressing WT GRM3 in a mutant GRM3 background compared to control infected cells (cell proliferation) [1] | subG1 population (apoptotic cells) in mutant GRM3 cells compared to WT cells [2] | cleaved PARP in mutant GRM3 lines compared to WT cells (PARP cleavage) | migration of vector and WT GRM3 expressing cells upon stimulation (A375 pooled GRM3 clones) | migration of vector and WT GRM3 expressing cells upon stimulation [3] |
| --- | --- | --- | --- | --- | --- | --- | --- |
| Cn1cnc2c(F)c(Nc3ccc(Br)cc3Cl)c(C(=O)NOCCO)cc21 [AZD-6244] | greater for the mutant cells than for the WT cells | inhibited MEK | four-fold increased resistance | significant increase | increased levels of cleaved PARP |  |  |
| N[C@H](C(=O)O)C1[C@@H](C(=O)O)[C@@H]1C(=O)O (stereo partly shown) [DCG-IV] |  |  |  |  |  | migrated to a similar extent as mutant GRM3 expressing cells in the absence of stimuli | migrated to a similar extent as mutant GRM3 expressing cells in the absence of stimuli |

Reference: patent US8795964B2, “GRM3 mutations and use thereof for the diagnosis and treatment of melanoma” (The United States of America, as represented by the …, priority 2010, dated 2014)
